The values below come from ChEMBL document CHEMBL5352390, “Design, synthesis and biological evaluation of (Quinazoline 4-yloxy)acetamide and (4-oxoquinazoline-3(4H)-yl)acetamide derivatives as inhibitors of Mycobacterium tuberculosis bd oxidase” (2022).

The subject of assay [1] is Mycobacterium tuberculosis. The assay can be described thus: Antimycobacterial activity against wild type Mycobacterium tuberculosis H37Rv assessed as inhibition of bacterial growth incubated for 7 days by resazurin microplate assay. The format is functional. The conditions noted are these: 168 h, time 7 day.
For assay [2], the system named is Mycobacterium tuberculosis. The assay can be described thus: Synergistic antimycobacterial activity against wild type Mycobacterium tuberculosis H37Rv assessed as fractional inhibitory concentration index incubated for 7 days in presence of Q203 by checkboard format based resazurin microplate assay. The format is functional. The following applies: time 7 day.
The subject of assay [3] is Mycobacterium tuberculosis. The assay can be described thus: Bactericidal activity against wild type Mycobacterium tuberculosis H37Rv under hypoxia condition assessed as reduction in log10 CFU at 32 uM incubated for 3 days by Methylene blue dye based CFU assay. The format is functional. The following applies: time 3 day.
For assay [4], the system named is Mycobacterium tuberculosis. As to the kind of experiment: Synergistic bactericidal activity against wild type Mycobacterium tuberculosis H37Rv under hypoxia condition assessed as reduction in log10 CFU at 32 uM incubated for 3 days in presence of Q203 by Methylene blue dye based CFU assay. The conditions noted are these: time 3 day. The assay is classed as functional.

Assay [5] deals with Mycobacterium tuberculosis. As to the kind of experiment: Inhibition of wild type Mycobacterium tuberculosis H37Rv cytochrome bd oxidase assessed as reduction in total cellular ATP level by measuring relative luminescence unit at 32 uM incubated for 15 hrs by BacTiter-Glo microbial cell viability reagent based bioluminescence assay relative to control (Rvb= 13.73%).
Assay [6] deals with Mycobacterium tuberculosis. The assay can be described thus: Inhibition of wild type Mycobacterium tuberculosis H37Rv cytochrome bd oxidase assessed as reduction in total cellular ATP level by measuring relative luminescence unit at 32 uM incubated for 15 hrs in presence of Q203 by BacTiter-Glo microbial cell viability reagent based bioluminescence assay relative to control (Rvb= 13.73%).

Assay [7] concerns Mycobacterium tuberculosis. As to the kind of experiment: Inhibition of wild type Mycobacterium tuberculosis H37Rv cytochrome bd oxidase assessed as inhibition of oxygen consumption at 16 to 64 uM and measured after 5 days by Methylene blue dye based assay. The conditions noted are these: dose 16-64 µM, time 5.0 day.
The test system of assay [8] is Mycobacterium tuberculosis. As to the kind of experiment: Inhibition of wild type Mycobacterium tuberculosis H37Rv cytochrome bd oxidase assessed as inhibition of oxygen consumption at 16 to 64 uM and measured for 20 days in presence of Q203 by Methylene blue dye based assay. The following applies: dose 16-64 µM, time 20.0 day.
The subject of assay [9] is Mycobacterium tuberculosis. As to the kind of experiment: Bactericidal activity against wild type Mycobacterium tuberculosis H37Rv under hypoxia condition assessed as reduction in log10 CFU at 0.03 uM incubated for 3 days by Methylene blue dye based CFU assay. The assay is classed as functional. The conditions noted are these: time 3 day.
Assay [10] has as its system Mycobacterium tuberculosis. The assay can be described thus: Inhibition of wild type Mycobacterium tuberculosis H37Rv cytochrome bd oxidase assessed as reduction in total cellular ATP level by measuring relative luminescence unit at 0.1 uM incubated for 15 hrs by BacTiter-Glo microbial cell viability reagent based bioluminescence assay relative to control (Rvb= 13.73%).

Assay [11] relates to Mycobacterium tuberculosis. The assay can be described thus: Inhibition of wild type Mycobacterium tuberculosis H37Rv cytochrome bd oxidase assessed as inhibition of oxygen consumption at 0.1 uM and measured after 5 days by Methylene blue dye based assay. The conditions noted are these: time 5.0 day.
For assay [12], the system named is Mycobacterium tuberculosis. As to the kind of experiment: Bactericidal activity against wild type Mycobacterium tuberculosis H37Rv under hypoxia condition assessed as reduction in log10 CFU at 0.5 uM incubated for 3 days by Methylene blue dye based CFU assay. The assay is classed as functional. The conditions noted are these: time 3 day.
Assay [13] deals with Mycobacterium tuberculosis. As to the kind of experiment: Bactericidal activity against wild type Mycobacterium tuberculosis H37Rv under hypoxia condition assessed as reduction in log10 CFU at 0.5 ug/ml incubated for 3 days by Methylene blue dye based CFU assay. The assay is classed as functional, organism-based. The following applies: dose 0.5 µg/ml, time 3.0 day.

In brackets after ≈: the same amount, converted by molar mass. Activity calls are given as the source filed them. The rule behind the calls is not given here. Some results are limits rather than exact numbers.

For the compound `O=C(COc1ncnc2ccccc12)Nc1ccc(Br)cc1`, the MIC in assay [1] is over 32 µM. Turning to `O=C(Cn1cnc2ccccc2c1=O)Nc1ccc(Br)cc1`, in [1], the MIC was over 32 µM.

Turning to `Cc1ccc(NC(=O)COc2ncnc3ccccc23)cc1`, the MIC in assay [1] was over 32 µM. In the case of `O=C(COc1ncnc2ccccc12)NCc1ccc(N2CCN(Cc3ccccc3)CC2)cc1`, the MIC in [1] is over 32 µM. In the case of `Cc1ccccc1NC(=O)COc1ncnc2ccccc12`, the MIC in [1] is over 32 µM.

Regarding `O=C(COc1ncnc2ccccc12)Nc1ccccc1`, in assay [2], the “fractional inhibitory concentration index (FICI)” value is 1.062. The MIC in assay [1] is 128 µM (≈ 35.8 µg/mL). Also, the figures for the Activity in assay [3] and in assay [4] were 1.9 log10CFU and 4 log10CFU, respectively. The results for the inhibition in assay [5] and in assay [6] were 7% and 89.8%, respectively. In [7], the inhibition result was “inactive”. Moreover, the inhibition result in assay [8] is “Active”. With `CSc1ccc(NC(=O)Cn2cnc3ccccc3c2=O)cc1`, the MIC in [1] is over 32 µM. As to `O=C(COc1ncnc2ccccc12)Nc1ccc(F)cc1`, in assay [1], the MIC is over 32 µM.

Consider `O=C(Cn1cnc2ccccc2c1=O)Nc1ccc(Cl)cc1`, for which the MIC in assay [1] is over 32 µM. Same read-out and setting: then `COc1ccc(NC(=O)Cn2cnc3ccccc3c2=O)cc1`, with over 32 µM. Consider `O=C(Cn1cnc2ccccc2c1=O)Nc1ccc(C(F)(F)F)cc1`, for which, in assay [1], the MIC was over 32 µM.

Consider `O=C(COc1ncnc2ccccc12)NCc1ccccc1`, for which the MIC in assay [1] was over 32 µM.

Consider `O=C(Cn1cnc2ccccc2c1=O)Nc1ccccc1`, for which the MIC in assay [1] was over 32 µM. Consider `O=C(Cn1cnc2ccccc2c1=O)Nc1ccc(F)cc1`, for which, in assay [1], the MIC was over 32 µM. Regarding `O=C(Cn1cnc2ccccc2c1=O)Nc1ccc([N+](=O)[O-])cc1`, the MIC in assay [1] is over 32 µM. Regarding `CCc1nc2ccc(Cl)cn2c1C(=O)NCc1ccc(N2CCC(c3ccc(OC(F)(F)F)cc3)CC2)cc1` [TELACEBEC], the MIC in [1] was found to be 0.016 µM (≈ 0.00891 µg/mL). The Activity in assay [9] is listed as 0.8 log10CFU. Further, the inhibition in [10] was 33.4%. In addition, in assay [11], the inhibition entry is “inactive”. Take `O=C(Cn1cnc2ccccc2c1=O)NC1=C(C(F)(F)F)CCC=C1`: in [1], the MIC is over 32 µM.

`COc1ccc(NC(=O)COc2ncnc3ccccc23)cc1`: the MIC in assay [1] is over 32 µM. `O=C(Cn1cnc2ccccc2c1=O)Nc1ccc(OC(F)(F)F)cc1`: the MIC in assay [1] is over 32 µM. Take `COc1ccccc1NC(=O)COc1ncnc2ccccc12`: the MIC in [1] was over 32 µM. For `COc1nc2ccc(Br)cc2cc1[C@@H](c1ccccc1)[C@@](O)(CCN(C)C)c1cccc2ccccc12` [BEDAQUILINE], the Activity in assay [12] came to 2.3 log10CFU.

As to `O=C(COc1ncnc2ccccc12)Nc1cccc2ccccc12`, in assay [1], the MIC was over 32 µM. Same read-out and setting: as for `COc1ccccc1NC(=O)Cn1cnc2ccccc2c1=O`, the figure is over 32 µM. In the case of `O=C(COc1ncnc2ccccc12)NCc1ccc(N2CCN(c3ccccc3)CC2)cc1`, the MIC in assay [1] was over 32 µM. Turning to `COc1ccc(N2CCN(c3ccc(CNC(=O)COc4ncnc5ccccc45)cc3)CC2)cc1`, in assay [1], the MIC was over 32 µM. Regarding `NNC(=O)c1ccncc1`, in assay [13], the result was inactive.

Turning to `Cc1ccc(NC(=O)Cn2cnc3ccccc3c2=O)cc1`, the MIC in assay [1] was over 32 µM.

Regarding `O=C(COc1ncnc2ccccc12)Nc1ccc(Cl)cc1`, the “fractional inhibitory concentration index (FICI)” value in assay [2] is listed as 0.375. In addition, the MIC in [1] was determined as 256 µM (≈ 80.3 µg/mL). For the same compound, the figures for the Activity in assay [3] and in [4] were 1.9 log10CFU and 4 log10CFU, respectively. Besides, the inhibition in assay [5] was 22.8%; in assay [6], 91.2%. Further, the inhibition entry in assay [7] is “inactive”. Also, the inhibition result in [8] was “Active”.

For the compound `O=C(COc1ncnc2ccccc12)Nc1ccc(OC(F)(F)F)cc1`, the MIC in assay [1] was over 32 µM. Turning to `O=C(COc1ncnc2ccccc12)NCc1ccc(N2CCN(c3ccc(F)cc3)CC2)cc1`, in assay [1], the MIC was over 32 µM. Regarding `O=C(COc1ncnc2ccccc12)NCc1ccc(N2CCC(c3ccccc3)CC2)cc1`, in assay [1], the minimal inhibitory concentration (MIC) is over 32 µM. For the compound `O=C(COc1ncnc2ccccc12)Nc1ccc(C(F)(F)F)cc1`, the MIC in assay [1] was over 32 µM.
